Data reported in PubChem BioAssay (NCI).
Several values for one entry are separate records, joined by “and”; a condition that tells them apart may be missing. Equal entries are not always repeated.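 These data come from cells grown in 96-well plates and exposed to compound for 48 hours at five concentrations. At the GI50, growth is halved. TGI: total growth inhibition.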

What was measured:
Test in all cases: DTP human tumour cell line panel, 48 h
SK-MEL-2 melanoma = test system: SK-MEL-2 melanoma
NCI-H460 lung = test system: NCI-H460 lung
NCI-H226 lung = test system: NCI-H226 lung
RXF 393 renal = test system: RXF 393 renal
CAKI-1 renal = test system: CAKI-1 renal
HOP-92 NSCLC = test system: HOP-92 NSCLC
HCT-15 colon = test system: HCT-15 colon
IGROV1 ovarian = test system: IGROV1 ovarian
SK-MEL-28 melanoma = test system: SK-MEL-28 melanoma
MALME-3M melanoma = test system: MALME-3M melanoma

| Structure (SMILES) | TGI (SK-MEL-2 melanoma) [µM] | TGI (NCI-H460 lung) [µM] | TGI (NCI-H226 lung) [µM] | TGI (RXF 393 renal) | TGI (CAKI-1 renal) [µM] | TGI (HOP-92 NSCLC) | TGI (HCT-15 colon) [µM] | TGI (IGROV1 ovarian) [µM] | TGI (SK-MEL-28 melanoma) [µM] | TGI (MALME-3M melanoma) [µM] | GI50 (SK-MEL-2 melanoma) [µM] | GI50 (NCI-H460 lung) [µM] | GI50 (NCI-H226 lung) [µM] | GI50 (RXF 393 renal) | GI50 (CAKI-1 renal) [µM] | GI50 (HOP-92 NSCLC) | GI50 (HCT-15 colon) [µM] | GI50 (IGROV1 ovarian) | GI50 (MALME-3M melanoma) | GI50 (SK-MEL-28 melanoma) [µM] |
| --- | --- | --- | --- | --- | --- | --- | --- | --- | --- | --- | --- | --- | --- | --- | --- | --- | --- | --- | --- | --- |
| CCOC(=O)c1nnsc1NN | > 100 | > 100 | > 100 | > 100 µM | > 100 | > 100 µM | > 100 | > 100 | > 100 |  |  |  |  |  |  |  |  |  |  |  |
| COC1=C(C)C(=O)c2c(c(COC(N)=O)c3n2CC(OC(C)=O)C3OC(C)=O)C1=O (stereo not given) | 0.387 | 0.235 | 1.39 | 0.428 µM | < 0.0278 | 0.54 µM | 0.0692 | 0.402 | 0.816 | 0.156 |  |  |  |  |  |  |  |  |  |  |
| C[C@H]1SC(c2ccc(Cl)cc2Cl)N(NC(=O)c2ccncc2)C1=O (stereo not given in full) | 58.3 | > 100 | 76.6 | 61.2 µM | > 100 | > 100 µM | > 100 | > 100 | > 100 | > 100 |  |  |  |  |  |  |  |  |  |  |
| COc1ccc(NC(=S)NC(=O)c2ccc3c(c2)Sc2ccccc2O3)c([N+](=O)[O-])c1 | 96.2 | > 100 | > 100 | 75.6 µM | > 100 | 44.9 µM | > 100 | 59.1 | > 100 | 35.7 |  |  |  |  |  |  |  |  |  |  |
| CC1(C)[C@H]2CC[C@@]13C(=O)N1C(=O)O[C@@H]([C@H]1Cl)C(Cl)(COCc1ccccc1)C(=O)OCCO[C@H]3C2 (stereo not given in full) | > 100 | > 100 |  |  | > 100 | > 100 µM | > 100 | > 100 | > 100 | > 100 |  |  |  |  |  |  |  |  |  |  |
| C[C@]12CC[C@@H]3c4cc(I)c(O)cc4CC[C@H]3[C@@H]1CC[C@@H]2O | 13.7 | 16 | 33.4 | 20.1 µM | 27 | 26.3 µM | 8.78 | 20.5 | 26.7 | 28.3 |  |  |  |  |  |  |  |  |  |  |
| COC(=O)c1cc(C#N)[nH]c1-c1cc(Br)cs1 | 35.2 | 54.5 | 49.4 | 23 µM | 62.7 | 19.1 µM | 33.2 | 35.3 | 36.5 | 34.9 |  |  |  |  |  |  |  |  |  |  |
| C\C(=N/N=C1/C(=C\N(C)C)C(=O)NC(=O)N1C)c1ccc(Cl)cc1 | > 100 | > 100 | > 100 | > 100 µM | > 100 | > 100 µM | > 100 | > 100 | > 100 | > 100 |  |  |  |  |  |  |  |  |  |  |
| COC(=O)C1=Nc2c(C)nn(-c3ccccc3)c2N=C(c2ccccc2)C1 |  |  |  |  | > 10 | > 10 µM | > 10 | > 10 | > 10 | > 10 |  |  |  |  |  |  |  |  |  |  |
| COc1ccc(CN2C3CC2CN(c2ccc(-c4cc(OCC(C)(C)O)cn5ncc(C#N)c45)cn2)C3)cn1 | > 100 | > 100 | > 100 | 9.45 µM | > 100 | 7.35 µM | > 100 | > 100 | > 100 | > 100 | > 100 | 15.9 | 1.66 | 2.18 µM | 4.78 | 2.12 µM | 37.2 | 4.17 µM | > 100 µM | > 100 |
| Oc1[nH]c2ccccc2c1N=NC(=S)Nc1ccc(Cl)cc1 | > 100 | > 100 | 86.4 | > 100 µM | 64 | > 100 µM | > 100 | > 100 | > 100 | 54.7 |  |  |  |  |  |  |  |  |  |  |
| COc1cc(NC(C)=O)ccc1C(=O)NN1C(=O)/C(=C/c2ccco2)N=C1c1ccccc1 | > 50 |  |  | > 50 µM | > 50 | > 50 µM | > 50 | > 50 | > 50 | > 50 |  |  |  |  |  |  |  |  |  |  |
| CCC(C(=O)C(=O)OC)P1(=O)OC(C)(C)CN1C(C)(C)C (stereo not given) | > 100 | > 100 | > 100 |  | > 100 |  | > 100 | > 100 | > 100 | > 100 |  |  |  |  |  |  |  |  |  |  |
| O=C(C(Cl)=C(N1CCOCC1)N1CCOCC1)C(Cl)Cl |  | > 100 | > 100 | > 100 µM | > 100 | > 100 µM | > 100 | > 100 | > 100 | > 100 |  |  |  |  |  |  |  |  |  |  |
| CCCSc1nc(-c2ccc(OC)cc2)c(C#N)c(=O)n1C1OC(COC(C)=O)C(OC(C)=O)C(OC(C)=O)C1OC(C)=O (stereo not given) | > 100 | > 100 |  | > 100 µM and 61.2 µM |  | > 100 µM and 93.7 µM |  | > 100 | > 100 | > 100 |  |  |  | > 100 µM and 17.2 µM |  | > 100 µM and 28.2 µM |  | > 100 µM and 43.4 µM | > 100 µM and 32.3 µM |  |
| CC(=O)OC1C(COC(=O)c2ccccc2)OC(Nc2ncc(-c3ccc(Br)cc3)s2)C(OC(=O)c2ccccc2)C1OC(=O)c1ccccc1 (stereo not given) | 35.3 | > 100 | > 100 | > 100 µM |  | > 100 µM |  | > 100 | > 100 | > 100 |  |  |  |  |  |  |  |  |  |  |
| CCOC(=O)C1CCC(=O)N1C(=O)c1ccccc1 (stereo not given) |  | > 100 | > 100 | > 100 µM | > 100 | > 100 µM | > 100 | > 100 | > 100 | > 100 |  |  |  |  |  |  |  |  |  |  |
| CSc1n[nH]c(N)c1C(=O)Nc1ccccc1 | > 100 | > 100 | > 100 | > 100 µM | > 100 |  | > 100 | > 100 | > 100 | > 100 |  |  |  |  |  |  |  |  |  |  |
| CO[C@@H]1O[C@H](C(=O)c2ccccc2)[C@H]2OC(C)(C)O[C@@H]12 | > 100 | > 100 | > 100 | > 100 µM | > 100 | > 100 µM | > 100 | > 100 |  |  |  |  |  |  |  |  |  |  |  |  |
| N#Cc1c(-c2ccccc2)cc(-c2ccc(Cl)cc2)[nH]c1=S |  | > 100 | 80.5 | > 100 µM | > 100 | > 100 µM | > 100 | 89.8 | 80.1 | > 100 |  |  |  |  |  |  |  |  |  |  |
| O=C1CSC2=NC3=C(COC/C3=C\c3ccc(Br)cc3)C(c3ccc(Br)cc3)N12 (stereo not given) | > 100 | > 100 | > 100 | > 100 µM | > 100 | > 100 µM | > 100 | > 100 |  |  |  |  |  |  |  |  |  |  |  |  |
